We go through ten molecules from patent US11969425B2, “Inhibitor of indoleamine-2,3-dioxygenase (IDO)” (InventisBio LLC, priority 2016, dated 2024).

The IC50 is the concentration that gives 50% inhibition. As a reminder, the EC50 is the concentration giving half of the maximal effect.

Data set [1] deals with kynurenine production in HeLa cells. Kind of data set: Inhibition of kynurenine production in HeLa cells. It is filed as cell-based, human. Particulars: 48 h, HeLa cells, human IFN-γ 50 ng/mL, kynurenine read at 480 nm, read-out: IC50.
Data set [2] can be described thus: Human hepatocyte clearance study. In kind it is in vitro ADME. Particulars: pooled cryopreserved human hepatocytes (suspension); for CLint scaled at 1 µM: human, scaled up from in vitro t1/2, scaling factor 2544.3, read-out: Human Scale-up Clint; for hepatocyte CLint at 1 µM / half-life at 1 µM: pooled human hepatocytes; for hepatocyte CLint at 1 µM: read-out: Human In vitro Clint (μL/min/10^6 cells); for half-life at 1 µM: read-out: Human In vitro T1/2. The method, then:
(§1) The in vitro human hepatocyte clearance of compounds described here was studied using pooled human hepatocytes purchased from BioreclamationIVT (Westbury, NY, Cat #X008001, Lot #TQJ). The assay was conducted according to manufacture's instruction. Briefly, 10 mM stock solutions of test compounds and positive control (Verapamil) were prepared in 100% DMSO. Thawing media (50 mL) used in the study consists of: 31 mLWilliams E medium (GIBCO Cat #12551-032); 15 mL isotonic percoll (GE Healthcare Cat #17-0891-09); 500 uL 100XGlutaMax (GIBCO Cat #35050); 750 uL HEPES (GIBCO Cat #15630-080); 2.5 mL FBS (Corning Cat #35-076*CVR); 50 uL human insulin (GIBCO Cat #12585-014) and 5 uL dexamethasone (NICPBP). Incubation media is made of Williams E medium supplemented with 1xGlutaMax. Both thawing medium and incubation medium (serum-free) were placed in a 37° C. water bath for at least 15 minutes prior to use. Compound stock solutions were diluted to 100 μM by combining 198 μL of 50% acetonitrile/50% water and 2 μL of 10 mM stock solution. Verapamil was use as positive control in the assay. Vials of cryopreserved hepatocytes were removed from storage and thawed in a 37° C. water bath with gentle shaking. Contents of the vial were poured into the 50 mL thawing medium conical tube. Vials were centrifuged at 100 g for 10 minutes at room temperature. Thawing medium was aspirated and hepatocytes were re-suspended with serum-free incubation medium to yield ˜1.5×10^6 cells/mL. Hepatocyte viability and density were counted using a Trypan Blue exclusion, and then cells were diluted with serum-free incubation medium to a working cell density of 0.5×10^6 viable cells/mL. Then, a portion of the hepatocytes at 0.5×10^6 viable cells/mL was boiled for 5 minutes prior to adding to the plate as negative control to eliminate the enzymatic activity so that little or no substrate turnover should be observed. The boiled hepatocytes were used to prepare negative samples. Aliquots of 198 μL hepatocytes were dispensed into each well of a 96-well non-coated plate. The plate was placed in the incubator on an orbital shaker at 500 rpm for approximately 10 minutes. Aliquots of 2 μL of the 100 μM test compound or positive control were added into respective wells of the non-coated 96-well plate to start the reaction. This assay was performed in duplicate. The plate was incubated in the incubator on an orbital shaker at 500 rpm for the designated time points. Twenty-five microliter of contents were transferred and mixed with 6 volumes (150 μL) of cold acetonitrile with IS (200 nM imipramine, 200 nM labetalol and 200 nM diclofenac) to terminate the reaction at time points of 0, 15, 30, 60, 90 and 120 minutes. Samples were centrifuged at 3,220 g for 25 minutes and aliquots of 150 μL of the supernatants were used for LC-MS/MS analysis. For data analysis, all calculations were carried out using Microsoft Excel. Peak areas were determined from extracted ion chromatograms. The in vitro half-life (t1/2) of parent compound was determined by regression analysis of the percent parent disappearance vs. time curve. The in vitro half-life (in vitro t1/2) was determined from the slope value: in vitro t1/2=0.693/k. […] Scaling factors for in vivo intrinsic clearance prediction using human hepatocytes are listed as: liver weight (g liver/kg body weight): 25.7; hepatocyte concentration (10^6 cells/g liver): 99; scaling factor: 2544.3.

In data set [3] the test system is pooled human hepatocytes. Kind of data set: Human hepatocyte clearance study. In kind it is in vitro ADME. The protocol: as §1
Data set [4] has as its system T cells and HeLa cells co-culture. Kind of data set: T cells and HeLa cells co-culture assay (IFN-gamma production). In kind it is cell-based, human. Particulars: CD3 T cells + HeLa cells, 72 hr, FIG. 4, read-out: EC50, production of IFN-gamma in the T cells and HeLa cells co-culture media. The protocol:
HeLa cells were seeded into 96-well plate (5000 cells per well in 100 μL of cell growth media DMEM with 10% FBS and 1% pen/strep) and incubated at 37° C. with 5% CO2. After overnight incubation, 200 μL of INF-gamma (50 ng/ml in growth media) was added to the plate and returned to incubator for another 48 hr. SepMater™-50 centrifuge tube was used to isolate PBMC from human donor according to manufacture's instruction (Stemcell). The CD3 T cell was then isolated from the PBMC using EasySep Human T cell isolation kit (Stemcell). Wash the 96-well plat twice with 200 μL of co-culture media (RPMI-1640+10% FBS+1% Pen/strep). Adjust the CD3 T cells density to 5×10^5 cells/ml with high dose anti-CD3/CD28 beads and co-culture medium (RPMI-1640+10% FBS+1% Pen/strep) and seed 200 μL/well into 96-well plate. Compound at different concentration was added to each well and the plate was incubated for a further 72 hr. Level of INF-gamma in the co-culture media (100 μL) was analyzed using the Human IFN-gamma ELISA Ready-SET-GO kit from eBioscience.

Data set [5] relates to kynurenine production in SKOV-3 cells. Kind of data set: Inhibition of kynurenine production in SKOV-3 cells. In kind it is cell-based, human. The protocol: The effect of compounds described herein on the inhibition of kynurenine production in HeLa cells (derived from human cervical cancer) was determined. HeLa cells were seeded into a 96-well culture plate at a density of 5×10^3 per well in RPMI1640/phenol red free media (from GIBCO) with 2 mM L-glutamine and 10% fetal bovine serum (FBS, from GIBCO) and grown overnight in a 37° C. incubator with 5% CO2. Twenty-four hours later, human IFN-γ (from GIBCO) (final concentration 50 ng/mL) and test compound solutions (serially diluted to different wells) were added to each well with a final volume of 200 uL per well. Forty-eight hours after incubation with compounds, 140 uL supernatant was taken from each well and was transferred to a new 96-well plate. Ten microliters of 6.1 N trichloroacetic acid were added into each well, mixed and incubated at 50° C. for 30 minutes. […] The yellow color derived from kynurenine was measured at 480 nm using a SPECTRAmax i3 reader. Each compound concentration was done in triplicates and compound IC50 value was calculated using nonlinear regression using Graphpad Prism 5.0.
The effect of compounds described herein on the inhibition of kynurenine production in SKOV-3 cells (derived from human ovarian cancer) was determined using a similar experimental procedure as described in Example A. Exemplary results are shown in FIG. 1. […]

Data set [6] concerns LPS-induced plasma kynurenine. Kind of data set: Inhibition of LPS induced plasma kynurenine in mice. In kind it is in vivo. Particulars: Balb/c mouse, 5 mg/kg LPS i.p. plus oral 30 mpk. The protocol: The effect of compounds described herein on the inhibition of lipopolysaccharide (LPS)-induced plasma kynurenine in mouse was determined. Female Balb/c mouse (˜20 g, obtained from Vital River Laboratory Animal Co. LTD) was treated with either vehicle control (saline) or 5 mg/kg LPS via intraperitoneal injection, followed by an oral dose of 30 mpk compound 9 within 5 minutes of LPS injection. Blood samples (500 uL) were collected into K2EDTA tube via retro-orbital puncture at 12 and 24 hrs (terminal bleeding) after treatment with LPS or LPS plus compound 9. For vehicle control group, plasma samples were collected at 24 hour post dose. Blood samples were put on ice after collection and centrifuged at 4° C. (2000 g, 5 minutes) immediately after collection to obtain the plasma. Plasma kynurenine level was determined by LC-MS/MS analysis. Each group contains 3 mice and mean plasma kynurenine level was plotted in FIG. 2.

Molecules are shown by their SMILES. Read-outs that look alike come from different tables or passages of the source.

For the molecule `CCN(c1ncc(C2(C(=O)O)CCC2)cc1Nc1ccc(Cl)cc1)C1CCOCC1` [Compound 120], in data set [1] (Homo sapiens, HeLa), the half-inhibitory concentration (IC50) came to 0.1 nM. Further, in data set [2], the CLint scaled at 1 µM came to 3.5 mL/min/kg, the hepatocyte CLint at 1 µM was found to be 1.4 µL/min/1e6 cells and the half-life at 1 µM was found to be 17.1 h. For the same molecule, the “Human Hepatocyte Remaining Percentage @ 120 min” value in data set [3] (pooled human hepatocytes) is recorded as 94. Further, in data set [4] (Homo sapiens), the EC50 worked out at 9.1 nM.

For the molecule `CC(C)CN(CC(C)C)c1ccc(C2(C(=O)O)CCCC2)cc1NC(=O)Nc1ccc(F)cc1F` [Compound 9, 1-[4-[bis(2-methylpropyl)amino]-3-[[(2,4-difluorophenyl)carbamoyl]amino]phenyl]cyclopentane-1-carboxylic acid], the IC50 in data set [1] (Homo sapiens, HeLa) was 2.2 nM; in data set [5] (Homo sapiens, SK-OV-3, FIG. 1), 7.4 nM. The results for the “drop of plasma kynurenine compared to the LPS treatment alone” value in data set [6] (12 hour time point) and in data set [6] (24 hour time point) were 72% and 85%, respectively. The CLint scaled at 1 µM in data set [2] was found to be 10 mL/min/kg. In data set [2], the hepatocyte CLint at 1 µM was 3 µL/min/1e6 cells. Besides, the half-life at 1 µM in data set [2] stood at 7.05 h. Besides, the “Human Hepatocyte Remaining Percentage @ 120 min” value in data set [3] (pooled human hepatocytes) is on record as 79.

For `CC(C)CN(CC(C)C)c1ccc(C(CC(=O)O)C(F)(F)F)cc1NC(=O)Nc1ccc(F)cc1F` (centres unmarked) [Control 1, 3-(3-(3-(2,4-difluorophenyl)ureido)-4-(diisobutylamino)phenyl)-4,4,4-trifluorobutanoic acid, reference compound], the IC50 in data set [1] (Homo sapiens, HeLa) stood at 0.8 nM. Further, in data set [2], the CLint scaled at 1 µM was found to be 11 mL/min/kg, the hepatocyte CLint at 1 µM stood at 4.1 µL/min/1e6 cells and the half-life at 1 µM is 5.6 h. In addition, in data set [3] (pooled human hepatocytes), the “Human Hepatocyte Remaining Percentage @ 120 min” value came to 76.

Regarding `CC(C)N(CC1CC1)c1ncc(C2(C(=O)O)CCC2)cc1Nc1ccc(Cl)cn1` [Compound 111], the half-inhibitory concentration (IC50) in data set [1] (Homo sapiens, HeLa) turned out to be 0.8 nM. Further, in data set [2], the CLint scaled at 1 µM came out at 20 mL/min/kg, the hepatocyte CLint at 1 µM is 7.7 µL/min/1e6 cells and the half-life at 1 µM came to 2.98 h. The “Human Hepatocyte Remaining Percentage @ 120 min” value in data set [3] (pooled human hepatocytes) is listed as 63.

Regarding `CC(C)CN(CC(C)C)c1ncc(C2(C(=O)O)CCC2)cc1Nc1ccc(Cl)cn1` [Compound 107], in data set [1] (Homo sapiens, HeLa), the IC50 was 0.4 nM. Further, in data set [2], the CLint scaled at 1 µM is 14 mL/min/kg, the hepatocyte CLint at 1 µM came to 5.5 µL/min/1e6 cells and the half-life at 1 µM was found to be 4.2 h. The “Human Hepatocyte Remaining Percentage @ 120 min” value in data set [3] (pooled human hepatocytes) was 76.

For `CC(C)CN(c1ccc(C2(C(=O)O)CCC2)cc1Nc1ccc(C#N)cn1)C1CCOCC1` [Compound 86], the IC50 in data set [1] (Homo sapiens, HeLa) was found to be 0.3 nM. Moreover, in data set [2], the CLint scaled at 1 µM was 13 mL/min/kg, the hepatocyte CLint at 1 µM is 5.2 µL/min/1e6 cells and the half-life at 1 µM came out at 4.47 h. The “Human Hepatocyte Remaining Percentage @ 120 min” value in data set [3] (pooled human hepatocytes) is 75.

As for `NS(=O)(=O)NCCNc1nonc1/C(=N/O)Nc1ccc(F)c(Br)c1` [INCB-24360, reference compound], the IC50 in data set [1] amounted to 6.9 nM. This molecule also yielded an IC50 in data set [5] (FIG. 1) of 10.2 nM. Further, in data set [3] (pooled human hepatocytes), the “Human In vitro Clint (μL/min/10^6 cells)” value is reported as 19 μL/min/10^6 cells, the “Human In vitro T1/2” value is 1.22 h and the “Human Hepatocyte Remaining Percentage @ 120 min” value stood at 35. Further, the “Human Scale-up Clint” value in data set [3] (scaled up from in vitro t1/2, scaling factor 2544.3) came out at 48 mL/min/kg. For the same molecule, in data set [4], the EC50 came out at 41 nM.

On to `CC(C)CN(c1ccc(C2(C(=O)O)CCC2)cc1NC(=O)Nc1ccc(F)cc1F)C1CCOCC1` [Compound 25], for which the IC50 in data set [1] (Homo sapiens, HeLa) was 0.6 nM. For the same molecule, in data set [2], the CLint scaled at 1 µM came out at 3.9 mL/min/kg, the hepatocyte CLint at 1 µM came out at 1.5 µL/min/1e6 cells and the half-life at 1 µM amounted to 15 h. Moreover, in data set [3] (pooled human hepatocytes), the “Human Hepatocyte Remaining Percentage @ 120 min” value came to 89.

Regarding `CCN(c1ncc(C2(C(=O)O)CCC2)cc1Nc1ccc(Cl)cn1)C1CCOCC1` [Compound 123], the half-maximal inhibitory concentration (IC50) in data set [1] (Homo sapiens, HeLa) came to 0.3 nM. Besides, in data set [2], the CLint scaled at 1 µM is 3.7 mL/min/kg, the hepatocyte CLint at 1 µM is 1.4 µL/min/1e6 cells and the half-life at 1 µM turned out to be 16.1 h. In addition, in data set [3] (pooled human hepatocytes), the “Human Hepatocyte Remaining Percentage @ 120 min” value was found to be 100.

For the molecule `CC(C)CN(CC(C)C)c1ccc(C2(C(=O)O)CCC2)cc1NC(=O)Nc1ccc(F)cc1F` [Compound 16], the IC50 in data set [1] (Homo sapiens, HeLa) stood at 1.5 nM. Besides, in data set [2], the CLint scaled at 1 µM was 1.8 mL/min/kg, the hepatocyte CLint at 1 µM is 0.7 µL/min/1e6 cells and the half-life at 1 µM was determined as 31.4 h. Also, the “Human Hepatocyte Remaining Percentage @ 120 min” value in data set [3] (pooled human hepatocytes) was 101.
